The source made the active and inactive calls.
Legend:
[1] = molecular target: Dual specificity tyrosine-phosphorylation-regulated kinase 1A (Rattus norvegicus, UniProt Q63470); assay type: biochemical, Homo sapiens
Caspase-6 = molecular target: T1, Caspase-6 (Homo sapiens, UniProt P55212); test: human caspase-6 inhibitors, dose response, biochemical, VEID-R110 fluorescence, cherry-pick (AID 720632)
T1 sequence (P55212 whole entry): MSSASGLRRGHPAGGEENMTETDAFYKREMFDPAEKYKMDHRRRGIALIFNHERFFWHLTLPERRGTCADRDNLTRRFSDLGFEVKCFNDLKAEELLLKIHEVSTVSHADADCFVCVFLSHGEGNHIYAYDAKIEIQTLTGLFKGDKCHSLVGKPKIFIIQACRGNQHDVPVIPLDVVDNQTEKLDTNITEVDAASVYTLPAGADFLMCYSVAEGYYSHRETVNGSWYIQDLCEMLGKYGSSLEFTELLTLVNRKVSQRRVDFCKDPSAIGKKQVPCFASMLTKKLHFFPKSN

[2] = molecular target: T2, RNA-binding protein pos-1 (Caenorhabditis elegans, UniProt G5EF15); test: inhibitors of POS-1/mex-3 RNA binding, dose response, biochemical, fluorescence polarization (AID 1964);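 note: purified POS-1 fused to maltose binding protein made in E. coli; potency of compounds blocking POS-1 binding to fluorescent RNA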
T2 sequence (G5EF15 whole entry): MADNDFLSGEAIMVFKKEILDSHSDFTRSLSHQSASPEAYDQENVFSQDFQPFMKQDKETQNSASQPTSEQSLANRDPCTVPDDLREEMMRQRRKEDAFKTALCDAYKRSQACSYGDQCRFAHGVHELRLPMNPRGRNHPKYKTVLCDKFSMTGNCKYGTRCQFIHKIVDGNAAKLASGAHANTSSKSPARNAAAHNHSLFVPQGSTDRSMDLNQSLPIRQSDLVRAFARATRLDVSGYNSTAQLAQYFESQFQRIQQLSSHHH

[3] = molecular target: T3, Zinc finger protein mex-5 (Caenorhabditis elegans, UniProt Q9XUB2); test: MEX-5/TCR-2 RNA interaction inhibitors, dose response, biochemical, C. elegans, fluorescence polarization (AID 1960)
T3 sequence (Q9XUB2 whole entry): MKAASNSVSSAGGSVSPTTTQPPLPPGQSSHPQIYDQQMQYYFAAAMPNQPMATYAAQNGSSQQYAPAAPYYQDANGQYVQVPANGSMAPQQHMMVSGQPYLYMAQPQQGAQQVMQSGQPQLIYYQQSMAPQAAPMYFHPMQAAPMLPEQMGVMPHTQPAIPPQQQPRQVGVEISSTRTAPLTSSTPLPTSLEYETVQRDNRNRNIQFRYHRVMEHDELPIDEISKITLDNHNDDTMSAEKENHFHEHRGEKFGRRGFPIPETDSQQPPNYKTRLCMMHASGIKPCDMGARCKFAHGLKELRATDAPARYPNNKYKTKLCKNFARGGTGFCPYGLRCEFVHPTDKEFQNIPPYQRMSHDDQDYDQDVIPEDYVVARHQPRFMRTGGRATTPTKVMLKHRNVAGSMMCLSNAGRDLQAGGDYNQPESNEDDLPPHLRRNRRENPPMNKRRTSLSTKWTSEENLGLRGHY

[4] = C. albicans growth with fluconazole, confirmation, fluorescence, retest (AID 2467); assay type: functional, cell-based
[5] = inhibitors of intracellular T. cruzi replication, confirmation, NIH3T3 host cells, beta-gal luminescence (AID 2044); assay type: functional, cell-based;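 note: intracellular parasites grown in NIH/3T3 mouse fibroblasts as host cells; luminescent beta-galactosidase reporter signal from transgenic T. cruzi replicating inside host cells; inhibitors lower the luminescence signal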
[6] = molecular target: ATP-dependent molecular chaperone HSP82 (Candida albicans (strain WO-1) (Yeast), UniProt C4YTQ8); test: loss of DOC-induced GRE-beta-galactosidase reporter signal, dose response, Hsp90 inhibitor project, S. cerevisiae, luminescence (AID 2400); assay type: functional, cell-based;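 note: beta-galactosidase luminescence from glucocorticoid response element reporter as proxy for Hsp90 function; inhibitor potency where signal loss means Hsp90 inhibition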
Chain of ATP-dependent molecular chaperone HSP82 (C4YTQ8 whole entry): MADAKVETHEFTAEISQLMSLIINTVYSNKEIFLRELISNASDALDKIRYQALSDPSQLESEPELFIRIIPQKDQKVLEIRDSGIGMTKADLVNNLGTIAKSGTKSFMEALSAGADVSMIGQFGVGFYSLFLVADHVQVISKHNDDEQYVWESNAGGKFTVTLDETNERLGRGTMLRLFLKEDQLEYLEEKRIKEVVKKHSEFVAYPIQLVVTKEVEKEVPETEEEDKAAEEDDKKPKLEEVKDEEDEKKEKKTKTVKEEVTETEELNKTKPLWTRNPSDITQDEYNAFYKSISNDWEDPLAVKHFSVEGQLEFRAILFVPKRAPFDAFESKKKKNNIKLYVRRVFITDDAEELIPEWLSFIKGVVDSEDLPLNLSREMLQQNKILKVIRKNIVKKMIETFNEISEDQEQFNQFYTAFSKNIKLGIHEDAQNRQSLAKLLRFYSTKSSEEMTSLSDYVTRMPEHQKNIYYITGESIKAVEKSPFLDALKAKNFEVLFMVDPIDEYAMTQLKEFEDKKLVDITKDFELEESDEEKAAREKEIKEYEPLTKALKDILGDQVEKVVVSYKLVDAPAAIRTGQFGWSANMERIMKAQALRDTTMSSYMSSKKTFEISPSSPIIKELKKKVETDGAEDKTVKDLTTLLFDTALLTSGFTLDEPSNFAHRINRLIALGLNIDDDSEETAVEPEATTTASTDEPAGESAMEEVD

INS1 = test: beta cell apoptosis inhibitors, cytokine rescue, dose response, luminescence, retest (AID 449756); assay type: functional, cell-based; conditions: Rattus norvegicus;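 note: cell death triggered by IL-1 beta plus TNF-alpha plus IFN-gamma mixture; protective hits raise ATP signal compared with cytokine alone wells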
[7] = molecular target: Serine/threonine-protein phosphatase (Candida dubliniensis (strain CD36 / CBS 7987 / NCPF 3949 / NRRLY-17841) (Yeast), UniProt B9W6M3); test: calcineurin pathway inhibitors in yeast reporter, dose response, S. cerevisiae, CDRE-lacZ, luminescence, secondary (AID 2388); assay type: functional, cell-based;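 note: yeast reporter cells carrying a calcineurin-responsive lacZ construct stimulated with calcium chloride; luminescent beta-galactosidase reporter signal in whole cells rather than isolated phosphatase activity; potency for inhibition where a drop in reporter signal means calcineurin blockade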
Chain of Serine/threonine-protein phosphatase (B9W6M3 whole entry): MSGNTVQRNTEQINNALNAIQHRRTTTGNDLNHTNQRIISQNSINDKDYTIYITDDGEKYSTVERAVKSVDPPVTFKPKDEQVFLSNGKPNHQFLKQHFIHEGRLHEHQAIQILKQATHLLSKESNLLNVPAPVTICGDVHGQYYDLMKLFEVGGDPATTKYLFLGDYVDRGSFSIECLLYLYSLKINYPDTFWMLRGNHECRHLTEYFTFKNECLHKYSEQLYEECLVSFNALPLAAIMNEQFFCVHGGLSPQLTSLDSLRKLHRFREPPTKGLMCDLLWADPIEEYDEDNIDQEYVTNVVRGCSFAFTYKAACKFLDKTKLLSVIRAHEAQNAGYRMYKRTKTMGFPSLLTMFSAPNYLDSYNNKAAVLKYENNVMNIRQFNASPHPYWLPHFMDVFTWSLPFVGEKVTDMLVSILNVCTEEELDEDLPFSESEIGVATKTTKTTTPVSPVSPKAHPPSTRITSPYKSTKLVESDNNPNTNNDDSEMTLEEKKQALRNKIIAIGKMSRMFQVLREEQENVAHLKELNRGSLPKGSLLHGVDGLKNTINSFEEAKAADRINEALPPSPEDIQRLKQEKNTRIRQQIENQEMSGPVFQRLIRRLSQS

[8] = NIH-3T3 fibroblast cytotoxicity, dose response, cytotoxicity control, cell-based, fluorescence, Alamar Blue, secondary assay (AID 2327); assay type: functional;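 note: NIH-3T3 mouse fibroblasts cultured with fluconazole at 8 µg/mL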
[9] = cytotoxicity toward NIH3T3 fibroblasts, dose response, counter-screen, cell-based, ATP luminescence, mouse fibroblasts (AID 2010); assay type: functional;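 note: cells exposed to compound for about 90 hours before reading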
[10] = THP-1 cell cytotoxicity, dose response, cytotoxicity control for non-replicating M. tuberculosis project (AID 489025); assay type: functional
[11] = control 3'UTR Renilla luciferase suppression, dose response, counter-screen for Shn3 inhibitor project, cell-based, Clone20-Shn3RL, cherry-picked (AID 624133); assay type: functional
[12] = molecular target: FAD-linked sulfhydryl oxidase ALR (Homo sapiens, UniProt P55789); test: inhibitors of human ALR sulfhydryl oxidase, dose response, biochemical, H2O2 detection, luminescence, cherry-pick (AID 493248)
Chain of FAD-linked sulfhydryl oxidase ALR (P55789 whole entry): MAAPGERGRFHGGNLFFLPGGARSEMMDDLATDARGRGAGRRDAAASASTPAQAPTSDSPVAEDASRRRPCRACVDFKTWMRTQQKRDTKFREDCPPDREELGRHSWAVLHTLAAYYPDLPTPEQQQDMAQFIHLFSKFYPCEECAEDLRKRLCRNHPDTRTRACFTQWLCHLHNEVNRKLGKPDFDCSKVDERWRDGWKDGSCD

[13] = HepG2 cell cytotoxicity, dose response, cytotoxicity control for non-replicating M. tuberculosis project (AID 489018); assay type: functional; conditions: Mycobacterium tuberculosis
[14] = growth suppression of beta-catenin-knockout colon cells, dose response, cell-based, HCT116, human colon tumor (AID 1045); assay type: functional;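 note: HCT116 colon tumor cells with beta catenin knocked out; cells exposed to compound for 60 hours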
[15] = HepG2 cell cytotoxicity, dose response, cytotoxicity control for Shn3 inhibitor project, CellTiter-Glo, cherry-picked (AID 624134); assay type: functional, cell-based
[16] = molecular target: T4, Microphthalmia-associated transcription factor (Homo sapiens, UniProt O75030); test: TRPM1 promoter luciferase signal decrease, dose response, MITF inhibitor project, cell-based, SK-MEL-5, cherry-picked, set 3 (AID 493073); assay type: functional
T4 sequence (O75030 whole entry): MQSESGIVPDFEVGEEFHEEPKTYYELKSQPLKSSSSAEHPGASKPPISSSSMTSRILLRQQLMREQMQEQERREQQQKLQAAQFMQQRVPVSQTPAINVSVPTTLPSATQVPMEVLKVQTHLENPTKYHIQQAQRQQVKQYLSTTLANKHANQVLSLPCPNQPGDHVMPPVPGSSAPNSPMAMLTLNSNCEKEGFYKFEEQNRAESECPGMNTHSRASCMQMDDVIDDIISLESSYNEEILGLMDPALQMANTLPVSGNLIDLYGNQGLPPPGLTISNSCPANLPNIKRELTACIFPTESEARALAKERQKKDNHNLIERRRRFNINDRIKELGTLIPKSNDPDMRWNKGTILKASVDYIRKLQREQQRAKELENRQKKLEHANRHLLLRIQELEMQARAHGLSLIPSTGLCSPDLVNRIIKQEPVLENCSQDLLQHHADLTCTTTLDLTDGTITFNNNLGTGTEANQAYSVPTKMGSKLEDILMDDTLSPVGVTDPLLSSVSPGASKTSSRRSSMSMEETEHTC

cells = assay type: functional
Paired box protein Pax-8 = Paired box protein Pax-8 (Homo sapiens, UniProt Q06710); test: inhibitors of PAX8-driven TPO luciferase reporter, dose response, RMG-I cells, cherry-pick (AID 687027); assay type: functional, cell-based;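 note: luciferase reporter driven by Pax8 target thyroperoxidase promoter measured by SteadyGlo luminescence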
Chain of Paired box protein Pax-8 (Q06710 whole entry): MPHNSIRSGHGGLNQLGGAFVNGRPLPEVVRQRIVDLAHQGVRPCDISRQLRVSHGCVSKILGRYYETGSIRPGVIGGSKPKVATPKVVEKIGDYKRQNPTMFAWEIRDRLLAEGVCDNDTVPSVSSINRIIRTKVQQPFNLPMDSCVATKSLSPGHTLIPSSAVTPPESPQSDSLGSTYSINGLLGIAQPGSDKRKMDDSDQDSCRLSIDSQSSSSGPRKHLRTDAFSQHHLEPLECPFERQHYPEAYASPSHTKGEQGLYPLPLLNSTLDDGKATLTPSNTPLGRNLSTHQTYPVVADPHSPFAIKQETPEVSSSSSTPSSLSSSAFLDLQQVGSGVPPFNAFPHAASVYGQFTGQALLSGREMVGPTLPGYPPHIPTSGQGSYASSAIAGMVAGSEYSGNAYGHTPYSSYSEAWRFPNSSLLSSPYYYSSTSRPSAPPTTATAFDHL

[17] = growth suppression of PTEN-null colon cells, dose response, cell-based, HCT116 PTEN knockout (AID 1047); assay type: functional;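 note: HCT116 colon tumor cells with PTEN knocked out; cells exposed to compound for 60 hours before readout; potency for loss of cell viability measured by luminescence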
[18] = Vero E6 cell cytotoxicity, dose response, cytotoxicity control for non-replicating M. tuberculosis project, secondary assay (AID 492998); assay type: functional, VeroE6; conditions: Vero C1008
A-375 = test: A375 melanoma cell viability reduction, dose response, counter-screen for MITF modulator project, cherry-pick samples, set 2 (AID 540335); assay type: functional, cell-based; conditions: Homo sapiens
[19] = Shn3 3'UTR reporter inhibitors, dose response, cell-based, Clone20 osteoblasts, firefly luciferase, cherry-picked (AID 624132); assay type: functional;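 note: firefly luciferase luminescence from reporter carrying the Shn3 3'UTR in osteoblasts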

Cc1nc2c(ccc3nc(NC(=O)Cc4ccccc4)sc32)s1
AC50 [1]: 0.73 µM (active)

Cc1cc(/C=N/Nc2ccc([N+](=O)[O-])cn2)c(C)n1-c1cccc(C(=O)O)c1
AC50 (Caspase-6): 14.4 µM (active)
EC50 [2]: > 300 µM (not active)
EC50 [3]: 37.7 µM (active)
AC50 [1]: 8.79 µM (active)

CCCCCCOC(=O)C[N+](C)(C)CCOC1CC2CCC1(C)C2(C)C (stereo not drawn)
EC50 [4]: 0.456 µM (active)
EC50 [5]: 0.178 µM (active)
EC50 [6]: 30.6 µM (active)
AC50 (INS1): 4.16 µM (active)
EC50 [7]: > 180 µM (inactive)
EC50 [8]: 23.6 µM (active)
EC50 [9]: > 30 µM (not active)

O=C(c1ccccc1)C(CN1CCCC1)c1ccccc1 (stereo not drawn)
CC50 [10]: 9.86 µM (active)
AC50 [11]: 6.34 µM (active)
AC50 [12]: 3.73 µM (active)
CC50 [13]: 14.7 µM (active)
EC50 [14]: 1.88 µM (active)
EC50 [4]: 0.292 µM (active)
AC50 [15]: 17.4 µM (active)
AC50 [16]: 5.33 µM (active)
IC50 (cells): 8.41 µM (active)
AC50 (Paired box protein Pax-8): 4.88 µM (active)
EC50 [17]: 2.82 µM (active)
CC50 [18]: 9.26 µM (active)
AC50 (INS1): 4.07 µM (active)
AC50 (A-375): 25.2 µM (active)
EC50 [8]: > 160 µM (inactive)
AC50 [19]: 10.7 µM (active)

From ChEMBL document CHEMBL1201862, “PubChem BioAssay data set” (2004)
